Values of other authors, collected in patent US7183291B2 (Council of Scientific and Industrial Research, priority 1999, dated 2007).

Legend:
[1] = test system: P. cynomolgi B. infection; conditions: 1 mg/kg×7 days; cited from earlier work
[2] = test system: P. cynomolgi B. infection; conditions: 3.16 mg/kg×3 doses; monkeys; cited from earlier work
rodent malaria [3] = conditions: in vivo; cited from earlier work
rodent malaria [4] = conditions: in vivo; cited from earlier work; remark: listed apart in the source
erythrocytes = conditions: cited from earlier work
rodent malaria [5] = conditions: in vivo; cited from earlier work; remark: listed apart in the source
rodent malaria [6] = conditions: given directly to the insect; cited from earlier work

| Compound | gametocytocidal activity (rodent malaria [3]) | blood schizontocidal activity (rodent malaria [4]) | other results |
| --- | --- | --- | --- |
| COc1cc(NC(C)CCCNC2=C(C(C)=O)CCO2)c2ncccc2c1 (stereo not drawn) [N^1-(3-acetyl-4,5-dihydro-2-furanyl)-N^4-(6-methoxy-8-quinolinyl)-1,4-pentanediamine] | – | – | anti-relapse (radical curative) activity [1]: exerts anti-relapse (radical curative) activity; causal prophylactic activity [2]: causal prophylactic activity |
| COc1cc(NC(C)CCCN)c2ncccc2c1O (stereo not drawn) [formula (3), 5-hydroxy-6-methoxy-8-(4-amino-1-methylbutylamino) quinoline] | inactive | highly active | oxidation of oxyhemoglobin (HbO2) to methemoglobin (Met Hb) and of reduced glutathione (GSH) (erythrocytes): cause oxidation |
| COC1(O)C=C(NC(C)CCCN)c2ncccc2C1O (stereo not drawn) [formula (4), 5,6-dihydroxy-6-methoxy-8-(4-amino-1-methylbutylamino) quinoline] | only a slight gametocytocidal activity | highly active | – |
| COc1cc(N)c2ncccc2c1 [formula (10), 6-methoxy-8-aminoquinoline] | – | no significant activity | tissue schizontoidal effect relative to primaquine (rodent malaria [5]): two to three times more active than primaquine; direct sporontocidal activity (rodent malaria [6]): directly sporontocidal |
| Nc1cc(O)c(O)c2cccnc12 [formula (11), 5,6-dihydroxy-8-aminoquinoline] | – | no significant activity | oxidation of oxyhemoglobin (HbO2) to methemoglobin (Met Hb) and of reduced glutathione (GSH) (erythrocytes): cause oxidation; tissue schizontoidal effect relative to primaquine (rodent malaria [5]): two to three times more active than primaquine; direct sporontocidal activity (rodent malaria [6]): directly sporontocidal |
| COc1cc(NC(C)CCC(=O)O)c2ncccc2c1 (stereo not drawn) [formula (12), 8-(3-carboxy-1-methylpropylamino)-6-methoxy quinoline] | inactive | – | methemoglobin formation in vitro (erythrocytes; in vitro): does not cause methemoglobin formation |
| Desmethyl primaquine [formula (5)] | inactive | little | – |
